In PubChem BioAssay (NCI):
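Five concentrations, 48 hours, 96-well plates. TGI: concentration producing complete growth inhibition.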

What was measured:
Experiment in all cases: NCI anticancer screen, dose series, 48 h
[1] = system: NCI-H23 lung
[2] = system: OVCAR-8 ovarian
[3] = system: COLO 205 colon
[4] = system: 786-0 renal
[5] = system: RXF-631 renal
[6] = system: UACC-257 melanoma
[7] = system: KM12 colon
[8] = system: UACC-62 melanoma
[9] = system: SK-OV-3 ovarian
[10] = system: NCI-H460 lung
[11] = system: HCC-2998 colon
[12] = system: K-562 leukemia
[13] = system: UO-31 renal
[14] = system: M14 melanoma
[15] = system: ACHN renal
[16] = system: TK-10 renal
[17] = system: NCI-H522 lung
[18] = system: OVCAR-3 ovarian
[19] = system: SF-539 CNS
[20] = system: RPMI-8226 leukemia
[21] = system: IGROV1 ovarian
[22] = system: OVCAR-5 ovarian
[23] = system: SR leukemia
[24] = system: MALME-3M melanoma
[25] = system: XF 498 CNS
[26] = system: SN12C renal
[27] = system: SK-MEL-2 melanoma
[28] = system: LXFL 529 NSCLC
[29] = system: DLD-1 colon
[30] = system: NCI-H226 lung
[31] = system: SW-620 colon
[32] = system: SF-268 CNS
[33] = system: HL-60(TB) leukemia
[34] = system: HCT-15 colon
[35] = system: HCT-116 colon
[36] = system: MOLT-4 leukemia
[37] = system: HOP-92 NSCLC
[38] = system: HOP-62 NSCLC
[39] = system: OVCAR-4 ovarian
[40] = system: SNB-78 CNS
[41] = system: HOP-18 NSCLC
[42] = system: SK-MEL-28 melanoma
[43] = system: SF-295 CNS
[44] = system: KM20L2 colon
[45] = system: A549 NSCLC
[46] = system: CAKI-1 renal
[47] = system: LOX IMVI melanoma
[48] = system: SNB-75 CNS
[49] = system: SNB-19 CNS
[50] = system: HT29 colon
[51] = system: DMS 273 small cell lung
[52] = system: M19-MEL melanoma
[53] = system: CCRF-CEM leukemia
[54] = system: EKVX NSCLC
[55] = system: DMS 114 small cell lung
[56] = system: A498 renal

Measured: TGI

N#CC(C(=O)CCCC(=O)Nc1ccc(Cl)cc1Cl)c1ccc(Cl)cc1 (stereo not drawn)
> 100 µM: [1] | [2] | [3] | [4] | [5] | [6] | [7] | [8] | [9] | [10] | [11] | [12] | [13] | [14] | [15] | [16] | [17] | [18] | [19] | [20] | [21] | [22] | [23] | [24] | [25] | [26] | [27] | [28] | [29] | [30] | [31] | [32] | [33] | [34] | [35] | [36] | [37] | [38] | [39] | [40] | [41] | [42] | [43] | [44] | [45] | [46] | [47] | [48] | [49] | [50] | [51]

CN1CN(C(=O)N2CN(C)C(=O)N(C)C2)CN(C)C1=O
> 100 µM: [52] | [2] | [3] | [6] | [7] | [8] | [53] | [9] | [11] | [12] | [13] | [14] | [15] | [17] | [18] | [19] | [20] | [21] | [22] | [24] | [54] | [25] | [26] | [27] | [55] | [28] | [29] | [56] | [30] | [31] | [32] | [33] | [34] | [35] | [36] | [38] | [40] | [41] | [42] | [43] | [44] | [45] | [46] | [47] | [48] | [49] | [50]
